The values that follow come from patent US20200055821A1, “METHOD FOR MANUFACTURING DIASTEREOMER OF CITRIC ACID DERIVATIVE” (OTSUKA PHARMACEUTICAL FACTORY, INC., priority 2017, published 2020).

Series [1] can be described thus: stability of compound A in aqueous solution by pH (hydrolysis seen by HPLC). In kind it is physicochemical. From the text:
The difficult point when the crystal of the compound A is obtained by the present method is in removing citric acid from the aqueous solution containing the compound A and citric acid in an acidic condition. Since the compound A is unstable in a neutral to alkaline (pH of 5 or higher) aqueous solution, in order to suppress decomposition of the compound A, maintenance of an acidic condition is important. Therefore, the aqueous solution containing the compound A and citric acid and having a pH of 2.0 or lower to be used in the step (a) may be an aqueous solution whose pH is preferably 0.6 to 1.8 and most preferably 1.0 to 1.6. […]
The purified precipitate obtained at a pH of 3.6 by the above operation and the purified precipitate obtained at a pH of 6.0 thereby were each evaluated by qualitative analysis using HPLC (FIG. 5, FIG. 6). The each precipitate (about 10 mg) was dissolved in purified water (about 1 mL), diluted 40-fold with a 10 mM perchloric acid solution being a mobile phase of the qualitative analysis using HPLC, and analyzed (by being diluted with the 10 mM perchloric acid solution, which was an acidic solvent, the Ca salts of the compound A were converted to the compound A, thus the detection was made as the compound A.). […]

For a further series, the system named is liver disorder. Particulars: known active substance; cited from earlier work.
Series [2] in a line: solubility in isopropanol-water mixed solvent. In kind it is physicochemical. The following applies: mixed solvent of isopropanol and water, ratio of isopropanol 40% or higher. How it is done: A highly purified crystalline powder of the compound A was obtained by repeating three times the same operation as in the recrystallization described in the paragraph of Example 3. 100 mL of purified water (Japanese Pharmacopoeia purified water) was added to 10 g of the crystalline powder, which was then dissolved by heating the resultant in a water bath at 50° C. The resultant solution was filtered by using a membrane filter (Merck Millipore) of 0.22 μm in pore size, and the resultant filtrate was collected. The filtrate was concentrated by using an evaporator on a water bath at 40° C. to thereby collect the resultant as an about 50 ml of a solution. This solution was concentrated and […] to thereby become a solution in a supersaturated state. The solution as it was in the heated state (40° C.) was dispensed in test tubes with a lid so as to have solvent ratios indicated in the following Table (Table 4) to thereby produce solutions having mixed solvents. Specifically, by adding 100 μL of organic solvents of methanol, ethanol, acetone and the like to 400 μL of the supersaturated solution, there was made a solution having a water ratio in the mixed solvent of 80%. […]

Series [3] in a line: hygroscopicity and handling of the solid. The following applies: when concentrated and solidified / powder. It counts as physicochemical. An excerpt:
On the other hand, the crystal of the compound A was a non-hygroscopic powder, which was easily handled.

`O=C(O)CC(C(=O)O)N1C(=O)CC(O)(CC(=O)O)C1=O` (stereo not drawn) [compound A]: the “hydrolysis of the imide structure” value in series [1] (alkali added for the pH to be 6.0, 80% ethanol precipitation, HPLC) is “hydrolysis of the compound A progressed”. For the same compound, the “stability in aqueous solution” value in series [1] (neutral to alkaline (pH of 5 or higher) aqueous solution) is on record as “unstable”. Further, in the series with liver disorder, the “inhibitory effect against liver disorder” value is reported as “inhibitory effect against liver disorder”. Further, the solubility result in series [2] is listed as “decreased”.
As to `O=C(O)CC(C(=O)O)N1C(=O)C[C@@](O)(CC(=O)O)C1=O` (stereo partly drawn) [crystal of the compound A], in series [3], the hygroscopicity entry was “non-hygroscopic”.
Turning to `O=C(O)C[C@@H](C(=O)O)N1C(=O)C[C@@](O)(CC(=O)O)C1=O` [noncrystal of the compound A], the hygroscopicity entry in series [3] is recorded as “had hygroscopicity”.
